Laboratory results published in the NIST ThermoML archive (doi:10.1021/je800579j).
Numbers after ± are expanded uncertainties.

Test: refractive index (Na D-line) (dimensionless); xn = mol fraction of the nth substance listed
Settings: Liquid, Standard Abbe refractometry

Cc1ccc(C)cc1 [1,4-dimethylbenzene] + C1COCCO1
refractive index
Settings | 288.15 K | 293.15 K | 298.15 K | 303.15 K | 308.15 K | 313.15 K | 318.15 K
x2 = 0 | 1.4985 ± 0.0007 | 1.4959 ± 0.0007 | 1.4933 ± 0.0007 | 1.4907 ± 0.0007 | 1.4881 ± 0.0007 | 1.4855 ± 0.0007 | 1.483 ± 0.0006
x2 = 0.0716 | 1.4937 ± 0.0007 | 1.4911 ± 0.0007 | 1.4884 ± 0.0007 | 1.4858 ± 0.0007 | 1.4831 ± 0.0007 | 1.4805 ± 0.0007 | 1.4778 ± 0.0007
x2 = 0.1445 | 1.4887 ± 0.0007 | 1.4861 ± 0.0007 | 1.4834 ± 0.0007 | 1.4808 ± 0.0007 | 1.4781 ± 0.0007 | 1.4754 ± 0.0007 | 1.4727 ± 0.0007
x2 = 0.2132 | 1.4839 ± 0.0007 | 1.4813 ± 0.0007 | 1.4786 ± 0.0007 | 1.476 ± 0.0007 | 1.4733 ± 0.0007 | 1.4706 ± 0.0007 | 1.468 ± 0.0007
x2 = 0.2871 | 1.4787 ± 0.0007 | 1.4761 ± 0.0007 | 1.4734 ± 0.0007 | 1.4708 ± 0.0007 | 1.4681 ± 0.0007 | 1.4655 ± 0.0007 | 1.4628 ± 0.0007
x2 = 0.3582 | 1.4736 ± 0.0007 | 1.471 ± 0.0007 | 1.4684 ± 0.0007 | 1.4658 ± 0.0007 | 1.4632 ± 0.0007 | 1.4606 ± 0.0007 | 1.458 ± 0.0007
x2 = 0.4358 | 1.468 ± 0.0006 | 1.4655 ± 0.0007 | 1.4629 ± 0.0007 | 1.4604 ± 0.0007 | 1.4578 ± 0.0007 | 1.4552 ± 0.0007 | 1.4526 ± 0.0007
x2 = 0.5042 | 1.4629 ± 0.0006 | 1.4604 ± 0.0006 | 1.4579 ± 0.0006 | 1.4554 ± 0.0006 | 1.4529 ± 0.0007 | 1.4503 ± 0.0007 | 1.4478 ± 0.0007
x2 = 0.5846 | 1.4569 ± 0.0006 | 1.4544 ± 0.0006 | 1.452 ± 0.0006 | 1.4495 ± 0.0006 | 1.447 ± 0.0006 | 1.4445 ± 0.0006 | 1.442 ± 0.0007
x2 = 0.6543 | 1.4516 ± 0.0006 | 1.4492 ± 0.0006 | 1.4467 ± 0.0006 | 1.4443 ± 0.0006 | 1.4418 ± 0.0006 | 1.4394 ± 0.0006 | 1.4369 ± 0.0007
x2 = 0.7249 | 1.4462 ± 0.0006 | 1.4438 ± 0.0006 | 1.4414 ± 0.0006 | 1.439 ± 0.0006 | 1.4365 ± 0.0006 | 1.4341 ± 0.0006 | 1.4316 ± 0.0006
x2 = 0.7923 | 1.441 ± 0.0006 | 1.4386 ± 0.0006 | 1.4362 ± 0.0006 | 1.4338 ± 0.0006 | 1.4314 ± 0.0006 | 1.429 ± 0.0006 | 1.4266 ± 0.0006
x2 = 0.8623 | 1.4355 ± 0.0006 | 1.4332 ± 0.0006 | 1.4309 ± 0.0006 | 1.4286 ± 0.0006 | 1.4262 ± 0.0006 | 1.4238 ± 0.0006 | 1.4214 ± 0.0006
x2 = 0.9311 | 1.4301 ± 0.0006 | 1.4279 ± 0.0006 | 1.4256 ± 0.0006 | 1.4234 ± 0.0006 | 1.4211 ± 0.0006 | 1.4188 ± 0.0006 | 1.4165 ± 0.0006
